Test results as given in patent publication US12617783B2, “Heterocyclic GLP-1R agonists” (BIOMEA FUSION, INC., priority 2024, dated 2026).

target: T1, human GLP-1R (Homo sapiens, UniProt P43220); experiment: GLP-1R cAMP assay (Example B1a, HTRF, 30 min at room temperature); format: cell-based; details: cAMP accumulation in HEK293 expressing human GLP-1R, no BETP, 30 min room temperature (Method B1a, compounds ID 1-609), Table 1; read-out: EC50
T1 construct: host or cells: HEK293
Procedure, shortened: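 Competitive HTRF read-out of cAMP after 30 min room-temperature stimulation, BETP absent, of human GLP-1R-HEK293 cells (1,000/well) in HEPES buffer with 500 μM IBMX and 0.1% BSA. Activation normalised to GLP-1(7-37) positive control. EC50 from 4-parameter non-linear regression.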

T1 sequence (P43220 24-463): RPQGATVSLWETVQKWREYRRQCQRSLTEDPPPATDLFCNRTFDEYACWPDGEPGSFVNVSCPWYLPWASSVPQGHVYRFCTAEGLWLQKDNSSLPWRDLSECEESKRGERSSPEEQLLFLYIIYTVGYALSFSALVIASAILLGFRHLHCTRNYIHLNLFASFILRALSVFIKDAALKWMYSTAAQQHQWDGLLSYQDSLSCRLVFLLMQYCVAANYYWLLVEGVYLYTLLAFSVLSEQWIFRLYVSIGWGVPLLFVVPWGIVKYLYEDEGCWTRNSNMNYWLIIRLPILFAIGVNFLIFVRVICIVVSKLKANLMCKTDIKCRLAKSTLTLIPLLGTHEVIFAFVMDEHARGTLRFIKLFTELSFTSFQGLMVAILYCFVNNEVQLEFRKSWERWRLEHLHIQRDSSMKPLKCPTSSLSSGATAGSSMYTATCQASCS

Question: How did the EC50 turn out when `Cc1cc(-n2nc3c(c2-c2ncn(-c4ccc5c(cnn5C)c4F)c2C)[C@H](C)N(C(=O)c2cc4cc(C5CCC(F)(F)CC5)ccc4n2C2(c4noc(=O)[nH]4)CC2)CC3)cc(C)c1F` [Compound 106, 3-[1-[5-(4,4-difluorocyclohexyl)-2-[(4S)-2-(4-fluoro-3,5-dimethyl-phenyl)-3-[1-(4-fluoro-1-methyl-indazol-5-yl)-5-methyl-imidazol-4-yl]-4-methyl-6,7-dihydro-4H-pyrazolo[4,3-c]pyridine-5-carbonyl]indol-1-yl]cyclopropyl]-4H-1,2,4-oxadiazol-5-one] was run?
Answer: The EC50 was over 10000 nM.

Question: Which EC50 does the source give for `Cc1cc(-n2nc3c(c2-n2cc(-c4ccc5c(cnn5C)c4F)nn2)[C@H](C)N(C(=O)c2cc4cc([C@H]5CCOC(C)(C)C5)ccc4n2[C@@]2(c4noc(=O)[nH]4)C[C@@H]2C)CC3)cc(C)c1F` [Compound 1, 3-((1S,2S)-1-(5-((S)-2,2-dimethyltetrahydro-2H-pyran-4-yl)-2-((S)-3-(4-(4-fluoro-1-methyl-1H-indazol-5-yl)-1H-1,2,3-triazol-1-yl)-2-(4-fluoro-3,5-dimethylphenyl)-4-methyl-4,5,6,7-tetrahydro-2H-pyrazolo[4,3-c]pyridine-5-carbonyl)-1H-indol-1-yl)-2-methylcyclopropyl)-1,2,4-oxadiazol-5 (4H)-one] here?
Answer: The EC50 was over 10000 nM.

Question: For `Cc1cc(-n2nc3c(c2-n2ccn(-c4ccc5c(cnn5C)c4F)c2=O)[C@@H]2CCC[C@H](C3)N2C(=O)c2cc3cc([C@H]4CCOC5(CC5)C4)ccc3n2[C@@]2(c3noc(=O)[nH]3)C[C@@H]2C)cc(C)c1F` [Compound 509, 3-((1S,2S)-1-(2-((4S,8R)-3-(3-(4-fluoro-1-methyl-1H-indazol-5-yl)-2-oxo-2,3-dihydro-1H-imidazol-1-yl)-2-(4-fluoro-3,5-dimethylphenyl)-4,5,6,7,8,9-hexahydro-2H-4,8-epiminocycloocta [c]pyrazole-10-carbonyl)-5-((S)-4-oxaspiro[2.5]octan-7-yl)-1H-indol-1-yl)-2-methylcyclopropyl)-1,2,4-oxadiazol-5 (4H)-one], which EC50 is on record?
Answer: The EC50 was 134 nM.

Question: For `Cc1cc(-n2nc3c(c2-n2ccn(-c4ccc(C(N)=O)c(F)c4)c2=O)[C@@H]2CC[C@H](C3)N2C(=O)c2cc3cc([C@H]4CCOC(C)(C)C4)ccc3n2C2(c3noc(=O)[nH]3)CC2)cc(C)c1F` [Compound 117, 4-[3-[(1S,8R)-11-[5-[(4S)-2,2-dimethyltetrahydropyran-4-yl]-1-[1-(5-oxo-4H-1,2,4-oxadiazol-3-yl)cyclopropyl]indole-2-carbonyl]-4-(4-fluoro-3,5-dimethyl-phenyl)-4,5,11-triazatricyclo[6.2.1.02,6]undeca-2,5-dien-3-yl]-2-oxo-imidazol-1-yl]-2-fluoro-benzamide], which EC50 is on record?
Answer: Its EC50 is over 10000 nM.

Question: For `Cc1cc(-n2nc3c(c2-n2ccn(-c4ccc5c(cnn5C)c4F)c2=O)C2CCC(C3)N2C(=O)c2cc3cc([C@H]4CCOC(C)(C)C4)ccc3n2[C@@]2(c3noc(=O)[nH]3)C[C@@H]2C)cc(C)c1F` (stereo partly drawn) [Compound 32, 3-((1S,2S)-1-(5-((S)-2,2-dimethyltetrahydro-2H-pyran-4-yl)-2-(3-(3-(4-fluoro-1-methyl-1H-indazol-5-yl)-2-oxo-2,3-dihydro-1H-imidazol-1-yl)-2-(4-fluoro-3,5-dimethylphenyl)-2,4,5,6,7,8-hexahydro-4,7-epiminocyclohepta [c]pyrazole-9-carbonyl)-1H-indol-1-yl)-2-methylcyclopropyl)-1,2,4-oxadiazol-5 (4H)-one], which EC50 is on record?
Answer: The EC50 was 92.6 nM.

Question: How did the EC50 turn out when `Cc1cc(-n2nc3c(c2-n2ccn(-c4ccc5c(cnn5C)c4F)c2=O)[C@@H]2CC[C@H](C3)N2C(=O)c2cc3cc([C@@H]4CCOC5(CCC5)C4)ccc3n2[C@@]2(c3noc(=O)[nH]3)C[C@@H]2C)cc(C)c1F` [Compound 424, 3-((1S,2S)-1-(2-((4S,7R)-3-(3-(4-fluoro-1-methyl-1H-indazol-5-yl)-2-oxo-2,3-dihydro-1H-imidazol-1-yl)-2-(4-fluoro-3,5-dimethylphenyl)-2,4,5,6,7,8-hexahydro-4,7-epiminocyclohepta [c]pyrazole-9-carbonyl)-5-((R)-5-oxaspiro[3.5]nonan-8-yl)-1H-indol-1-yl)-2-methylcyclopropyl)-1,2,4-oxadiazol-5(4H)-one] was run?
Answer: Its EC50 is at least 10000 nM.

Question: For `Cc1cc(-n2nc3c(c2-n2ccn(-c4ccc5ccncc5c4F)c2=O)[C@@H]2CCC[C@H](C3)N2S(=O)(=O)c2cc3cc([C@H]4CCOC(C)(C)C4)ccc3n2[C@@]2(c3noc(=O)[nH]3)C[C@@H]2C)cc(C)c1F` [Compound 602, 3-[(1S,2S)-1-[5-[(4S)-2,2-dimethyltetrahydropyran-4-yl]-2-[[(1S,8R)-4-(4-fluoro-3,5-dimethyl-phenyl)-3-[3-(8-fluoro-7-isoquinolyl)-2-oxo-imidazol-1-yl]-4,5,12-triazatricyclo[6.3.1.02,6]dodeca-2,5-dien-12-yl]sulfonyl]indol-1-yl]-2-methyl-cyclopropyl]-4H-1,2,4-oxadiazol-5-one], which EC50 is on record?
Answer: The EC50 was 1100 nM.

Question: How did the EC50 turn out when `Cc1cc(-n2nc3c(c2-n2ccn(-c4ccc5c(cnn5C)c4F)c2=O)[C@@H]2CC[C@H](CC3)N2C(=O)c2cc3cc([C@H]4CCOC(C)(C)C4)ccc3n2[C@@]2(c3noc(=O)[nH]3)C[C@@H]2C)cc(C)c1F` [Compound 523, 3-[(1S,2S)-1-[5-[(4S)-2,2-dimethyltetrahydropyran-4-yl]-2-[(1S,9R)-4-(4-fluoro-3,5-dimethyl-phenyl)-3-[3-(4-fluoro-1-methyl-indazol-5-yl)-2-oxo-imidazol-1-yl]-4,5,12-triazatricyclo[7.2.1.02,6]dodeca-2,5-diene-12-carbonyl]indol-1-yl]-2-methyl-cyclopropyl]-4H-1,2,4-oxadiazol-5-one] was run?
Answer: Its EC50 is 617 nM.

Question: How did the EC50 turn out when `CCP(=O)(CC)c1ccc(-n2ccn(-c3c4c(nn3-c3cc(C)c(F)c(C)c3)CCCN(C(=O)c3cc5cc(C6CCOCC6)ccc5n3[C@@]3(c5noc(=O)[nH]5)C[C@@H]3C)C4)c2=O)cc1NC` [Compound 506, 3-[(1S,2S)-1-[2-[3-[3-[4-diethylphosphoryl-3-(methylamino)phenyl]-2-oxo-imidazol-1-yl]-2-(4-fluoro-3,5-dimethyl-phenyl)-4,6,7,8-tetrahydropyrazolo[4,3-c]azepine-5-carbonyl]-5-tetrahydropyran-4-yl-indol-1-yl]-2-methyl-cyclopropyl]-4H-1,2,4-oxadiazol-5-one] was run?
Answer: Its EC50 is 757 nM.

Question: `Cc1cc(-n2nc3c(c2-n2ccn(-c4ccc5c(cnn5C)c4)c2=O)[C@@H]2CC[C@H](C3)N2C(=O)c2cc3cc([C@H]4CCOC5(CC5)C4)ccc3n2[C@@]2(c3noc(=O)[nH]3)C[C@@H]2C)cc(C)c1F` [Compound 323, 3-[(1S,2S)-1-[2-[(1S,8R)-4-(4-fluoro-3,5-dimethyl-phenyl)-3-[3-(1-methylindazol-5-yl)-2-oxo-imidazol-1-yl]-4,5,11-triazatricyclo[6.2.1.02,6]undeca-2,5-diene-11-carbonyl]-5-[(7S)-4-oxaspiro[2.5]octan-7-yl]indol-1-yl]-2-methyl-cyclopropyl]-4H-1,2,4-oxadiazol-5-one] was tested. Which EC50 did it give?
Answer: Its EC50 is 79.3 nM.

Question: How did the EC50 turn out when `Cc1cc(-n2nc3c(c2-n2ccn(-c4ccc5c(cnn5C)c4F)c2=O)[C@@H]2CC[C@H](C3)N2C(=O)c2cc3ccc(C4CCOC(C)(C)C4)cc3nc2C2(c3noc(=O)[nH]3)CC2)cc(C)c1F` (stereo partly drawn) [Compound 126, 3-[1-[7-(2,2-dimethyltetrahydropyran-4-yl)-3-[(1S,8R)-4-(4-fluoro-3,5-dimethyl-phenyl)-3-[3-(4-fluoro-1-methyl-indazol-5-yl)-2-oxo-imidazol-1-yl]-4,5,11-triazatricyclo[6.2.1.02,6]undeca-2,5-diene-11-carbonyl]-2-quinolyl]cyclopropyl]-4H-1,2,4-oxadiazol-5-one] was run?
Answer: The EC50 was over 10000 nM.

Question: Which EC50 does the source give for `Cc1cc(-n2nc3c(c2-n2ccn(-c4ccc5c(cnn5C)c4F)c2=O)[C@@H]2CC[C@H](C3)N2C(=O)c2cc3nc([C@H]4CCOC(C)(C)C4)sc3n2[C@@]2(c3noc(=O)[nH]3)C[C@@H]2C)cc(C)c1F` [Compound 206, 3-[(1S,2S)-1-[2-[(4S)-2,2-dimethyltetrahydropyran-4-yl]-5-[(1S,8R)-4-(4-fluoro-3,5-dimethyl-phenyl)-3-[3-(4-fluoro-1-methyl-indazol-5-yl)-2-oxo-imidazol-1-yl]-4,5,11-triazatricyclo[6.2.1.02,6]undeca-2,5-diene-11-carbonyl]pyrrolo[3,2-d]thiazol-4-yl]-2-methyl-cyclopropyl]-4H-1,2,4-oxadiazol-5-one] here?
Answer: Its EC50 is 1440 nM.

Question: How did the EC50 turn out when `Cc1cc(-n2nc3c(c2-n2ccn(-c4ccc5c(cnn5C)c4F)c2=O)[C@@H]2CC[C@H](C3)N2C(=O)c2cc3sc([C@H]4CCOC(C)(C)C4)nc3n2[C@@]2(c3noc(=O)[nH]3)C[C@@H]2C)cc(C)c1F` [Compound 306, 3-[(1S,2S)-1-[2-[(4S)-2,2-dimethyltetrahydropyran-4-yl]-5-[(1S,8R)-4-(4-fluoro-3,5-dimethyl-phenyl)-3-[3-(4-fluoro-1-methyl-indazol-5-yl)-2-oxo-imidazol-1-yl]-4,5,11-triazatricyclo[6.2.1.02,6]undeca-2,5-diene-11-carbonyl]pyrrolo[2,3-d]thiazol-4-yl]-2-methyl-cyclopropyl]-4H-1,2,4-oxadiazol-5-one] was run?
Answer: Its EC50 is 2450 nM.

Question: Which EC50 does the source give for `Cc1cc(-n2nc3c(c2-n2ccn(-c4ccc5c(cnn5C)c4F)c2=O)[C@@H]2CC[C@H](C3)N2C(=O)c2cc3cc([C@H]4CCOC(C)(C)C4)ccc3n2[C@@]2(C(=O)NC3CC3)C[C@@H]2C)cc(C)c1F` [Compound 246, cis-(1S,2S)-N-cyclopropyl-1-[5-[(4S)-2,2-dimethyltetrahydropyran-4-yl]-2-[(1S,8R)-4-(4-fluoro-3,5-dimethyl-phenyl)-3-[3-(4-fluoro-1-methyl-indazol-5-yl)-2-oxo-imidazol-1-yl]-4,5,11-triazatricyclo[6.2.1.02,6]undeca-2,5-diene-11-carbonyl]indol-1-yl]-2-methyl-cyclopropanecarboxamide] here?
Answer: The EC50 was 699 nM.
